Measured values taken from the supplement of paper PMC10307832.

Tests used:
Assay in all cases: relative viability (nuclei count vs DMSO), 5 days (fraction); higher = more cells survive
[1] = compound: C1CC(C1)(C(=O)O)C(=O)O.[NH2-].[NH2-].[Pt+2] [Carboplatin] + CC(C)C[C@H](NC(=O)[C@H](Cc1ccccc1)NC(=O)c1cnccn1)B(O)O [Bortezomib] (partner 0.002 µM)
How it was run: (§1)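 Lung cancer cell lines were seeded in 1536-well plates and dosed by pin tool the next day, with either a single drug or a fixed anchor-drug dose combined with five library-drug doses (not always all listed) spaced in √10 steps. Five days later, one step fixed the cells and stained their nuclei (final 0.05% Triton X-100, 1% formaldehyde, 1 ug/ml Hoechst), and nuclei were counted on 4× images. Relative viability is the nuclei count in treated wells divided by the count in vehicle wells, and each value is the median of duplicate plates.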

[2] = compound: CC[C@H](C)N1C=C(C2=C(C=C(C=C21)C3=CN=C(C=C3)N4CCNCC4)C(=O)NCC5=C(C=C(NC5=O)C)C)C [GSK126] + CC(C)C[C@H](NC(=O)[C@H](Cc1ccccc1)NC(=O)c1cnccn1)B(O)O [Bortezomib] (partner 0.002 µM)
How it was run: as §1

[3] = compound: CC[C@H](C)N1C=C(C2=C(C=C(C=C21)C3=CN=C(C=C3)N4CCNCC4)C(=O)NCC5=C(C=C(NC5=O)C)C)C [GSK126] + C[C@@H](Oc1cc(-c2cnn(C3CCNCC3)c2)cnc1N)c1c(Cl)ccc(F)c1Cl [Crizotinib] (partner 1 µM)
How it was run: as §1

[4] = compound: CC[C@H](C)N1C=C(C2=C(C=C(C=C21)C3=CN=C(C=C3)N4CCNCC4)C(=O)NCC5=C(C=C(NC5=O)C)C)C [GSK126] + Cc1nc(Nc2ncc(C(=O)Nc3c(C)cccc3Cl)s2)cc(N2CCN(CCO)CC2)n1 [Dasatinib] (partner 0.075 µM)
How it was run: as §1

For NCI-H2023, the relative viability ([1]; first compound 0.08 µM) was 1.06, the relative viability ([1]; first compound 0.253 µM) was 1.18 and the relative viability ([1]; first compound 0.8 µM) was 1.02. The relative viability ([1]; first compound 2.53 µM) was 0.717, the relative viability ([1]; first compound 8 µM) was 0.204 and the relative viability ([2]; first compound 0.08 µM) was 1.45. For the same cell line, the relative viability ([2]; first compound 0.253 µM) was 1.01, the relative viability ([2]; first compound 0.8 µM) was 1.19 and the relative viability ([2]; first compound 2.53 µM) was 1.39. For the same cell line, the relative viability ([2]; first compound 8 µM) was 1.37, the relative viability ([3]; first compound 0.08 µM) was 0.839 and the relative viability ([3]; first compound 0.253 µM) was 0.678. For the same cell line, the relative viability ([3]; first compound 0.8 µM) was 0.747, the relative viability ([3]; first compound 2.53 µM) was 0.74 and the relative viability ([3]; first compound 8 µM) was 0.747. For the same cell line, the relative viability ([4]; first compound 0.08 µM) was 0.641, the relative viability ([4]; first compound 0.253 µM) was 0.566 and the relative viability ([4]; first compound 0.8 µM) was 0.584. It also gave a relative viability ([4]; first compound 2.53 µM) of 0.627 and a relative viability ([4]; first compound 8 µM) of 0.661.
HCC-78 gave a relative viability ([1]; first compound 0.08 µM) of 0.561, a relative viability ([1]; first compound 0.253 µM) of 0.502 and a relative viability ([1]; first compound 0.8 µM) of 0.383. The relative viability ([1]; first compound 2.53 µM) was 0.497, the relative viability ([1]; first compound 8 µM) was 0.508 and the relative viability ([2]; first compound 0.08 µM) was 0.464. It also gave a relative viability ([2]; first compound 0.253 µM) of 0.466, a relative viability ([2]; first compound 0.8 µM) of 0.374 and a relative viability ([2]; first compound 2.53 µM) of 0.562. The relative viability ([2]; first compound 8 µM) was 0.389, the relative viability ([3]; first compound 0.08 µM) was 0.306 and the relative viability ([3]; first compound 0.253 µM) was 0.326. It also gave a relative viability ([3]; first compound 0.8 µM) of 0.318, a relative viability ([3]; first compound 2.53 µM) of 0.328 and a relative viability ([3]; first compound 8 µM) of 0.374. It also gave a relative viability ([4]; first compound 0.08 µM) of 0.423, a relative viability ([4]; first compound 0.253 µM) of 0.51 and a relative viability ([4]; first compound 0.8 µM) of 0.357. It also gave a relative viability ([4]; first compound 2.53 µM) of 0.355 and a relative viability ([4]; first compound 8 µM) of 0.367.
With ChaGo-K-1 the relative viability ([1]; first compound 0.08 µM) was 1.08, the relative viability ([1]; first compound 0.253 µM) was 0.837 and the relative viability ([1]; first compound 0.8 µM) was 0.916. It also gave a relative viability ([1]; first compound 2.53 µM) of 0.786, a relative viability ([1]; first compound 8 µM) of 0.406 and a relative viability ([2]; first compound 0.08 µM) of 0.969. The relative viability ([2]; first compound 0.253 µM) was 1.02, the relative viability ([2]; first compound 0.8 µM) was 0.979 and the relative viability ([2]; first compound 2.53 µM) was 1.19. It also gave a relative viability ([2]; first compound 8 µM) of 1.06, a relative viability ([3]; first compound 0.08 µM) of 0.998 and a relative viability ([3]; first compound 0.253 µM) of 1.09. For the same cell line, the relative viability ([3]; first compound 0.8 µM) was 0.976, the relative viability ([3]; first compound 2.53 µM) was 1.14 and the relative viability ([3]; first compound 8 µM) was 1.12. It also gave a relative viability ([4]; first compound 0.08 µM) of 0.653, a relative viability ([4]; first compound 0.253 µM) of 0.552 and a relative viability ([4]; first compound 0.8 µM) of 0.629. It also gave a relative viability ([4]; first compound 2.53 µM) of 0.572 and a relative viability ([4]; first compound 8 µM) of 0.547.
EPLC-272H was tested, and the relative viability ([1]; first compound 0.08 µM) was 0.86, the relative viability ([1]; first compound 0.253 µM) was 1.1 and the relative viability ([1]; first compound 0.8 µM) was 0.972. For the same cell line, the relative viability ([1]; first compound 2.53 µM) was 1.01, the relative viability ([1]; first compound 8 µM) was 0.877 and the relative viability ([2]; first compound 0.08 µM) was 1.1. For the same cell line, the relative viability ([2]; first compound 0.253 µM) was 0.889, the relative viability ([2]; first compound 0.8 µM) was 0.99 and the relative viability ([2]; first compound 2.53 µM) was 0.822. For the same cell line, the relative viability ([2]; first compound 8 µM) was 0.963, the relative viability ([3]; first compound 0.08 µM) was 1.07 and the relative viability ([3]; first compound 0.253 µM) was 0.843. For the same cell line, the relative viability ([3]; first compound 0.8 µM) was 0.909, the relative viability ([3]; first compound 2.53 µM) was 0.719 and the relative viability ([3]; first compound 8 µM) was 0.789. For the same cell line, the relative viability ([4]; first compound 0.08 µM) was 0.456, the relative viability ([4]; first compound 0.253 µM) was 0.375 and the relative viability ([4]; first compound 0.8 µM) was 0.321. For the same cell line, the relative viability ([4]; first compound 2.53 µM) was 0.404 and the relative viability ([4]; first compound 8 µM) was 0.327.
With LCLC-97TM1 the relative viability ([1]; first compound 0.08 µM) was 0.723, the relative viability ([1]; first compound 0.253 µM) was 0.62 and the relative viability ([1]; first compound 0.8 µM) was 1.25. For the same cell line, the relative viability ([1]; first compound 2.53 µM) was 0.844, the relative viability ([1]; first compound 8 µM) was 0.375 and the relative viability ([2]; first compound 0.08 µM) was 0.563. For the same cell line, the relative viability ([2]; first compound 0.253 µM) was 0.586, the relative viability ([2]; first compound 0.8 µM) was 0.671 and the relative viability ([2]; first compound 2.53 µM) was 0.719. It also gave a relative viability ([2]; first compound 8 µM) of 0.575, a relative viability ([3]; first compound 0.08 µM) of 0.337 and a relative viability ([3]; first compound 0.8 µM) of 0.42. It also gave a relative viability ([3]; first compound 2.53 µM) of 0.475, a relative viability ([3]; first compound 8 µM) of 0.441 and a relative viability ([4]; first compound 0.08 µM) of 0.845. It also gave a relative viability ([4]; first compound 0.253 µM) of 0.922, a relative viability ([4]; first compound 0.8 µM) of 0.918 and a relative viability ([4]; first compound 2.53 µM) of 0.822. It also gave a relative viability ([4]; first compound 8 µM) of 0.897.
CAL-12T showed a relative viability ([1]; first compound 0.08 µM) of 1.28, a relative viability ([1]; first compound 0.253 µM) of 0.826 and a relative viability ([1]; first compound 0.8 µM) of 0.972. For the same cell line, the relative viability ([1]; first compound 2.53 µM) was 1.07, the relative viability ([1]; first compound 8 µM) was 0.911 and the relative viability ([2]; first compound 0.08 µM) was 0.942. It also gave a relative viability ([2]; first compound 0.253 µM) of 1.01, a relative viability ([2]; first compound 0.8 µM) of 0.929 and a relative viability ([2]; first compound 2.53 µM) of 1.08. For the same cell line, the relative viability ([2]; first compound 8 µM) was 1.04, the relative viability ([3]; first compound 0.08 µM) was 0.805 and the relative viability ([3]; first compound 0.253 µM) was 0.67. The relative viability ([3]; first compound 0.8 µM) was 0.699, the relative viability ([3]; first compound 2.53 µM) was 0.398 and the relative viability ([3]; first compound 8 µM) was 0.441. For the same cell line, the relative viability ([4]; first compound 0.08 µM) was 0.582, the relative viability ([4]; first compound 0.253 µM) was 0.515 and the relative viability ([4]; first compound 0.8 µM) was 0.531. The relative viability ([4]; first compound 2.53 µM) was 0.512 and the relative viability ([4]; first compound 8 µM) was 0.45.
